# Key:
# sedge, umbrella = test: Test B flooded paddy test; format: in vivo, Cyperus difformis; details: Flood, 250 g ai/ha, 0 to 100 scale where 0 is no effect and 100 is complete control
# Summary of the method: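 Flooded to 3 cm at the 2-leaf stage, pots received compound through the paddy water and were kept at that depth under greenhouse conditions. After 13–15 days, effect was rated by eye relative to controls, 0 = none and 100 = complete control.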
# oilseed rape [1] = test: Test C preemergence; format: in vivo, Brassica napus
# Summary of the method: (§1)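 Whole-plant greenhouse test with surfactant-containing solvent formulation, applied preemergence to sown loam–sand pots or postemergence to 2–18 cm plants. Scored by eye 13 to 15 days on, 0–100 scale.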
# waterhemp = test: Test C preemergence; format: in vivo, Amaranthus rudis
# Summary of the method: as §1
# soybean = test: Test C preemergence; format: in vivo, Glycine max
# Summary of the method: as §1
# velvetleaf [2] = test: Test C postemergence; format: in vivo, Abutilon theophrasti
# Summary of the method: as §1
# johnsongrass = test: Test C preemergence; format: in vivo, Sorghum halepense
# Summary of the method: as §1
# velvetleaf [3] = test: Test A preemergence; format: in vivo, Abutilon theophrasti; details: for Plant response rating, Velvetleaf: 125 g ai/ha, 0 to 100 scale where 0 is no effect and 100 is complete control
# Summary of the method: (§2)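 Injury scores run from 0, no effect, to 100, complete control, judged by eye against untreated plants roughly 10 days after treatment. Chemicals carried a surfactant in a non-phytotoxic solvent and went onto loam–sand soil preemergence or onto one- to two-leaf seedlings postemergence.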
# barnyardgrass = test: Test A postemergence; format: in vivo, Echinochloa crus-galli
# Summary of the method: as §2
# chickweed = test: Test C postemergence; format: in vivo, Stellaria media
# Summary of the method: as §1
# oilseed rape [4] = test: Test C postemergence; format: in vivo, Brassica napus
# Summary of the method: as §1
# [5] = 62 g ai/ha, preemergence, scale 0 (no effect) to 100 (complete control)
# [6] = 125 g ai/ha, preemergence, scale 0 (no effect) to 100 (complete control)
# [7] = 250 g ai/ha, preemergence, scale 0 (no effect) to 100 (complete control)
# [8] = Preemergence, 31 g ai/ha, scale 0 to 100, 0 no effect, 100 complete control
# [9] = Postemergence, 31 g ai/ha, scale 0 to 100 (0 no effect, 100 complete control), 13 to 15 days
# [10] = Postemergence, 62 g ai/ha, scale 0 to 100 (0 no effect, 100 complete control)
smiles,measurement,setting,value
"N#Cc1cccc(Oc2ncc(Br)cn2)c1-n1cc(C(F)(F)F)cn1 [Compound 59, 3-[(5-bromo-2-pyrimidinyl)oxy]-2-[4-(trifluoromethyl)-1H-pyrazol-1-yl]benzonitrile]",pest or weed control at 250 g/ha,"sedge, umbrella; Cyperus difformis, read-out: Plant response rating, Sedge, Umbrella",90%
same,plant injury at 62 g/ha,"oilseed rape [1]; Brassica napus, pre-emergence, 62 g ai/ha, preemergence, scale 0 (no effect) to 100 (complete control), read-out: Oilseed Rape plant response rating",100%
same,plant injury at 125 g/ha,"oilseed rape [1]; Brassica napus, pre-emergence, 125 g ai/ha, preemergence, scale 0 (no effect) to 100 (complete control), read-out: Oilseed Rape plant response rating",100%
same,plant injury at 250 g/ha,"oilseed rape [1]; Brassica napus, pre-emergence, 250 g ai/ha, preemergence, scale 0 (no effect) to 100 (complete control), read-out: Oilseed Rape plant response rating",100%
same,plant injury at 31 g/ha,"oilseed rape [1]; Brassica napus, pre-emergence, Preemergence, 31 g ai/ha, scale 0 to 100, 0 no effect, 100 complete control, read-out: Plant response rating, Oilseed Rape",90%
same,pest or weed control at 62 g/ha,"waterhemp; Amaranthus tuberculatus, pre-emergence, 62 g ai/ha, preemergence, scale 0 (no effect) to 100 (complete control), read-out: Waterhemp plant response rating",100%
same,pest or weed control at 125 g/ha,"waterhemp; Amaranthus tuberculatus, pre-emergence, 125 g ai/ha, preemergence, scale 0 (no effect) to 100 (complete control), read-out: Waterhemp plant response rating",100%
same,pest or weed control at 250 g/ha,"waterhemp; Amaranthus tuberculatus, pre-emergence, 250 g ai/ha, preemergence, scale 0 (no effect) to 100 (complete control), read-out: Waterhemp plant response rating",100%
same,pest or weed control at 31 g/ha,"waterhemp; Amaranthus tuberculatus, pre-emergence, Preemergence, 31 g ai/ha, scale 0 to 100, 0 no effect, 100 complete control, read-out: Plant response rating, Waterhemp",100%
same,plant injury at 62 g/ha,"soybean; Glycine max, pre-emergence, 62 g ai/ha, preemergence, scale 0 (no effect) to 100 (complete control), read-out: Soybean plant response rating",90%
same,plant injury at 125 g/ha,"soybean; Glycine max, pre-emergence, 125 g ai/ha, preemergence, scale 0 (no effect) to 100 (complete control), read-out: Soybean plant response rating",90%
same,plant injury at 250 g/ha,"soybean; Glycine max, pre-emergence, 250 g ai/ha, preemergence, scale 0 (no effect) to 100 (complete control), read-out: Soybean plant response rating",95%
same,plant injury at 31 g/ha,"soybean; Glycine max, pre-emergence, Preemergence, 31 g ai/ha, scale 0 to 100, 0 no effect, 100 complete control, read-out: Plant response rating, Soybean",85%
same,pest or weed control at 125 g/ha,"velvetleaf [2]; Abutilon theophrasti, post-emergence, 125 g ai/ha, postemergence, read-out: Plant response rating (0 to 100), Velvetleaf",55%
same,pest or weed control at 250 g/ha,"velvetleaf [2]; Abutilon theophrasti, post-emergence, 250 g ai/ha, postemergence, read-out: Plant response rating (0 to 100), Velvetleaf",70%
same,pest or weed control at 31 g/ha,"velvetleaf [2]; Abutilon theophrasti, post-emergence, Postemergence, 31 g ai/ha, scale 0 to 100 (0 no effect, 100 complete control), 13 to 15 days, read-out: Plant response rating, Velvetleaf",15%
same,pest or weed control at 62 g/ha,"velvetleaf [2]; Abutilon theophrasti, post-emergence, Postemergence, 62 g ai/ha, scale 0 to 100 (0 no effect, 100 complete control), read-out: Plant response rating, Velvetleaf",30%
same,pest or weed control at 62 g/ha,"johnsongrass; Sorghum halepense, pre-emergence, 62 g ai/ha, preemergence, scale 0 (no effect) to 100 (complete control), read-out: Johnsongrass plant response rating",85%
same,pest or weed control at 125 g/ha,"johnsongrass; Sorghum halepense, pre-emergence, 125 g ai/ha, preemergence, scale 0 (no effect) to 100 (complete control), read-out: Johnsongrass plant response rating",98%
same,pest or weed control at 250 g/ha,"johnsongrass; Sorghum halepense, pre-emergence, 250 g ai/ha, preemergence, scale 0 (no effect) to 100 (complete control), read-out: Johnsongrass plant response rating",100%
same,pest or weed control at 31 g/ha,"johnsongrass; Sorghum halepense, pre-emergence, Preemergence, 31 g ai/ha, scale 0 to 100, 0 no effect, 100 complete control, read-out: Plant response rating, Johnsongrass",60%
same,"Plant response rating, Velvetleaf",velvetleaf [3],100
same,pest or weed control at 500 g/ha,"velvetleaf [3]; Abutilon theophrasti, pre-emergence, 240 h, 500 g ai/ha, 0 to 100 scale, 0 no effect, 100 complete control, approx. 10 days, read-out: Velvetleaf plant response rating",100%
same,pest or weed control at 125 g/ha,"barnyardgrass; Echinochloa crus-galli, post-emergence, 240 h, 125 g ai/ha, 0 to 100 scale where 0 is no effect and 100 is complete control, read-out: Plant response rating, Barnyardgrass",100%
same,pest or weed control at 500 g/ha,"barnyardgrass; Echinochloa crus-galli, post-emergence, 240 h, 500 g ai/ha, 0 to 100 scale, 0 no effect, 100 complete control, read-out: Plant response rating Barnyardgrass",100%
same,pest or weed control at 125 g/ha,"chickweed; Stellaria media, post-emergence, 125 g ai/ha, postemergence, read-out: Plant response rating (0 to 100), Chickweed",80%
same,pest or weed control at 250 g/ha,"chickweed; Stellaria media, post-emergence, 250 g ai/ha, postemergence, read-out: Plant response rating (0 to 100), Chickweed",98%
same,pest or weed control at 31 g/ha,"chickweed; Stellaria media, post-emergence, Postemergence, 31 g ai/ha, scale 0 to 100 (0 no effect, 100 complete control), 13 to 15 days, read-out: Plant response rating, Chickweed",40%
same,pest or weed control at 62 g/ha,"chickweed; Stellaria media, post-emergence, Postemergence, 62 g ai/ha, scale 0 to 100 (0 no effect, 100 complete control), read-out: Plant response rating, Chickweed",70%
same,plant injury at 125 g/ha,"oilseed rape [4]; Brassica napus, post-emergence, 125 g ai/ha, postemergence, read-out: Plant response rating (0 to 100), Oilseed Rape",85%
same,plant injury at 250 g/ha,"oilseed rape [4]; Brassica napus, post-emergence, 250 g ai/ha, postemergence, read-out: Plant response rating (0 to 100), Oilseed Rape",95%
same,plant injury at 31 g/ha,"oilseed rape [4]; Brassica napus, post-emergence, Postemergence, 31 g ai/ha, scale 0 to 100 (0 no effect, 100 complete control), 13 to 15 days, read-out: Plant response rating, Oilseed Rape",50%
same,plant injury at 62 g/ha,"oilseed rape [4]; Brassica napus, post-emergence, Postemergence, 62 g ai/ha, scale 0 to 100 (0 no effect, 100 complete control), read-out: Plant response rating, Oilseed Rape",50%
N#Cc1cccc(Oc2ncc(F)cn2)c1-n1cc(Cl)cn1 [Compound 73],"Plant response rating, Sedge, Umbrella","sedge, umbrella",85
same,Oilseed Rape plant response rating,oilseed rape [1]; [5],95
same,Oilseed Rape plant response rating,oilseed rape [1]; [6],100
same,Oilseed Rape plant response rating,oilseed rape [1]; [7],100
same,"Plant response rating, Oilseed Rape",oilseed rape [1]; [8],85
same,Waterhemp plant response rating,waterhemp; [5],100
same,Waterhemp plant response rating,waterhemp; [6],100
same,Waterhemp plant response rating,waterhemp; [7],100
same,"Plant response rating, Waterhemp",waterhemp; [8],100
same,Soybean plant response rating,soybean; [5],60
same,Soybean plant response rating,soybean; [6],75
same,Soybean plant response rating,soybean; [7],90
same,"Plant response rating (0 to 100), Velvetleaf","velvetleaf [2]; 125 g ai/ha, postemergence",50
same,"Plant response rating (0 to 100), Velvetleaf","velvetleaf [2]; 250 g ai/ha, postemergence",70
same,"Plant response rating, Velvetleaf",velvetleaf [2]; [9],30
same,"Plant response rating, Velvetleaf",velvetleaf [2]; [10],30
same,Johnsongrass plant response rating,johnsongrass; [5],35
same,Johnsongrass plant response rating,johnsongrass; [6],75
same,Johnsongrass plant response rating,johnsongrass; [7],98
same,"Plant response rating, Johnsongrass",johnsongrass; [8],10
same,"Plant response rating, Velvetleaf",velvetleaf [3],100
same,Velvetleaf plant response rating,"velvetleaf [3]; 500 g ai/ha, 0 to 100 scale, 0 no effect, 100 complete control, approx. 10 days",100
same,"Plant response rating, Barnyardgrass","barnyardgrass; 125 g ai/ha, 0 to 100 scale where 0 is no effect and 100 is complete control",90
same,"Plant response rating, Barnyardgrass","barnyardgrass; 500 g ai/ha, 0 to 100 scale, 0 no effect, 100 complete control",90
same,"Plant response rating (0 to 100), Chickweed","chickweed; 125 g ai/ha, postemergence",50
same,"Plant response rating (0 to 100), Chickweed","chickweed; 250 g ai/ha, postemergence",80
same,"Plant response rating, Chickweed",chickweed; [9],50
same,"Plant response rating, Chickweed",chickweed; [10],50
same,"Plant response rating (0 to 100), Oilseed Rape","oilseed rape [4]; 125 g ai/ha, postemergence",60
same,"Plant response rating (0 to 100), Oilseed Rape","oilseed rape [4]; 250 g ai/ha, postemergence",80
same,"Plant response rating, Oilseed Rape",oilseed rape [4]; [9],10
same,"Plant response rating, Oilseed Rape",oilseed rape [4]; [10],30

# Reference: patent publication US9695155B2, “Herbicidal substituted pyrimidinyloxy benzene compounds” (E. I. DU PONT DE NEMOURS AND COMPANY, priority 2013, dated 2017)
